Test [1] addresses Norepinephrine transporter (Rattus norvegicus, UniProt Q9WTR4). In words: Norepinephrine transporter activity was determined by the ability of compound to inhibit the neurotransmitter norepinephrine-NE reuptake system using [3H]norepinephrine as radioligand.
Test [2] addresses Sodium-dependent dopamine transporter (Rattus norvegicus, UniProt P23977). The test is described as follows: Compound was tested for its ability to inhibit the neurotransmitter dopamine-DA reuptake system using [3H]dopamine as radioligand.
The target of test [3] is Sodium-dependent serotonin transporter (Rattus norvegicus, UniProt P31652). The test is described as follows: Compound was tested for its ability to inhibit the neurotransmitter serotonin-5-HT reuptake system using [3H]5-HT as radioligand.
The nature of test [4]: Selectivity of compound towards DA transporter to that of NE transporter.

Experimental findings from ChEMBL document CHEMBL1130571, “Synthesis and evaluation of novel-N-[2-(bis-aryl-methoxy)ethyl-N-aralkyl-,-alkanediamines as potent and selective dopamine reuptake inhibitors: Seco analogs of GBR12935 and GBR12909” (Bioorg Med Chem Lett, 1997) are described below.

Where a name gives a salt, the structure may show the parent alone. Bounds are passed on as bounds.

Sequence of Norepinephrine transporter (Q9WTR4 whole entry): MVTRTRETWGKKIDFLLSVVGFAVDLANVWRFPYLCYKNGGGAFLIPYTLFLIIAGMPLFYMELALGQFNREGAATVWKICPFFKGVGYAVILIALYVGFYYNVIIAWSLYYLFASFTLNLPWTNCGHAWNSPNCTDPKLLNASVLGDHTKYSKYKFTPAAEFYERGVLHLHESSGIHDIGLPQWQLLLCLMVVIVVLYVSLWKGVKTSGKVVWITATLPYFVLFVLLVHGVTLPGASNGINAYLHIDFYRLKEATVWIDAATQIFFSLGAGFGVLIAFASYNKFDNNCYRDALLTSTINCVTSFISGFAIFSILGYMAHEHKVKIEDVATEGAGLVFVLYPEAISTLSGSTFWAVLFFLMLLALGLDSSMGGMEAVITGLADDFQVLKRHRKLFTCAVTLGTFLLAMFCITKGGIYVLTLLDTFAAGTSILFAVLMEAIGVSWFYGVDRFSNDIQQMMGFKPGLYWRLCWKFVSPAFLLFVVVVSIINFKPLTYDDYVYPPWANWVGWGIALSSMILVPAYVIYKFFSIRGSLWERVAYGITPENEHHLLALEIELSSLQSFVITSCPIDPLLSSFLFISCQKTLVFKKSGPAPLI
Sequence of Sodium-dependent dopamine transporter (P23977 whole entry): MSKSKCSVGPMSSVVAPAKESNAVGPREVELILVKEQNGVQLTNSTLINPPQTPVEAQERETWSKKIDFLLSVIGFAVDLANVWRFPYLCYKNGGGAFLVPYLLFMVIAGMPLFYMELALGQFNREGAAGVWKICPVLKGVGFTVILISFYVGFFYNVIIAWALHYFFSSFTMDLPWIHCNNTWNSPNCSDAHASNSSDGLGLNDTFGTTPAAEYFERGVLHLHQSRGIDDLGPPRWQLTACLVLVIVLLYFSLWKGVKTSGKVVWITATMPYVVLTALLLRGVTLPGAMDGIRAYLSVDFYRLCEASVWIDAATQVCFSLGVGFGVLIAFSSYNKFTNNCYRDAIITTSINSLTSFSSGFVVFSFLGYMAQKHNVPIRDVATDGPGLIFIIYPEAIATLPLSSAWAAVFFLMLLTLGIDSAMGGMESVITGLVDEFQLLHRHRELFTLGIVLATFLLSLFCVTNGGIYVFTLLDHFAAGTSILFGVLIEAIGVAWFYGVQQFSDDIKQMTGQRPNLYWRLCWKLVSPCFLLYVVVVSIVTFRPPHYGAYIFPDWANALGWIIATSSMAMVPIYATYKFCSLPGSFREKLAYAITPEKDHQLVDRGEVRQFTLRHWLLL
Sequence of Sodium-dependent serotonin transporter (P31652 whole entry): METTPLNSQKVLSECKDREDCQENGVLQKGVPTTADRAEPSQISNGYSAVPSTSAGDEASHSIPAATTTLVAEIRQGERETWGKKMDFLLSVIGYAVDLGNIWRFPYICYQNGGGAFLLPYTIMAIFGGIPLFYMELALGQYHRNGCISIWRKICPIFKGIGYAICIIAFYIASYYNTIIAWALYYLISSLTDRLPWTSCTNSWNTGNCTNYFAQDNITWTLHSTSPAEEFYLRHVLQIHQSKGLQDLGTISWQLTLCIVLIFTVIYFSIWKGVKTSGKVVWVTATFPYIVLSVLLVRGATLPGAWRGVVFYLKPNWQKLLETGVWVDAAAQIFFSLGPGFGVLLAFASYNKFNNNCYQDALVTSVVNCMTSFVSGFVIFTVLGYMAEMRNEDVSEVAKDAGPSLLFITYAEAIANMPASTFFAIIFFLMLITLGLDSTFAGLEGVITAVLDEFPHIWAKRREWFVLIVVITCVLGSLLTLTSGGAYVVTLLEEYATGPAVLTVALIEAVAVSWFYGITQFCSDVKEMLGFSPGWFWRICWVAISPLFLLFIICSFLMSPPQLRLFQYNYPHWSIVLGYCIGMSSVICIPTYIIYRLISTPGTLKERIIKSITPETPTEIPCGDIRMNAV

In the case of `Fc1ccc(C(OCCNCCNCCCc2ccccc2)c2ccc(F)cc2)cc1`, the IC50 (commonly the midpoint of a concentration-inhibition curve) was > 10000 nM in test [1], 49 nM in test [2] and 500 nM in test [3]. Moreover, the Selectivity in test [4] was > 200.
On the same counts, the results for `c1ccc(CCCNCCCNCCOC(c2ccccc2)c2ccccc2)cc1` are > 10000 nM, 150 nM, > 10000 nM and > 65.
Take `c1ccc(CCCNCCNCCOC(c2ccccc2)c2ccccc2)cc1`: the IC50 in test [1] is > 10000 nM; in test [2], 1230 nM; in test [3], > 10000 nM. Moreover, the Selectivity in test [4] was > 8.
Take `I/C=C\CN1CCN(CCOC(c2ccccc2)c2ccccc2)CC1`: the IC50 in test [1] was 2190 nM; in test [2], 780 nM; in test [3], > 10000 nM. In test [4], this compound had a Selectivity of 3.
On the same counts, the results for `CN(CCCc1ccccc1)CCN(C)CCOC(c1ccc(F)cc1)c1ccc(F)cc1` are > 10000 nM, 10 nM, 1500 nM and > 1000.
As to `CC(NC(C)(C)C)C(=O)c1cccc(Cl)c1` (stereo not given) [BUPROPION HYDROCHLORIDE], in test [2], the IC50 was determined as 1230 nM.
For `I/C=C/CN1CCN(CCOC(c2ccccc2)c2ccccc2)CC1`, the IC50 in test [1] is > 10000 nM; in test [2], 505 nM; in test [3] it was > 10000 nM. The Selectivity in test [4] is > 20.
